Experimental findings from patent publication US8501943B2, “Sodium salt of 5-cyclopropyl-2-{[2-(2,6-difluorophenyl)pyrimidin-5-yl]amino}benzoic acid as DHODH inhibitor” (Almirall, S.A., priority 2009, dated 2013) are described below.

Assay type in all cases: physicochemical
Data set [1] is described as follows: Water-solubility test. As to conditions: 25° C. (room temperature), expressed as acid. How it is done: The solubility of Example 1 in water at room temperature was determined together with the solubility of the corresponding free acids.
Data set [2] can be described thus: Dynamic Vapour Sorption (DVS) profile. As to conditions: 25° C. As for the experimental part: Dynamic Vapour Sorption (DVS) profiles were obtained using an Igasorp Hiden Isochema instrument (serial number IGA-SA-066). After an initial stabilization period, at least two isotherms (at 25° C.) were obtained for each sample: a moisture sorption from 0 to 95% relative humidity and moisture desorption from 95% relative humidity to dryness. Both isotherms were performed in 10% humidity steps, with a minimum time of 10 minutes and a maximum time of 30 minutes for each step.
FIG. 2 illustrates the DVS pattern of the sodium salt of 5-cyclopropyl-2-{[2-(2,6-difluorophenyl)pyrimidin-5-yl]amino}benzoic acid. Mass increase was measured at 80% (0.7% increase) and 90% (4.2% increase) relative humidity (RH).

Data set [3] in a line: Crystallisation tests of salts with pharmaceutically acceptable bases. As to conditions: for Solid form obtained: salt crystallisation tests. From the text: Crystallisation tests of salts of 5-cyclopropyl-2-{[2-(2,6-difluorophenyl)pyrimidin-5-yl]amino}benzoic acid with a broad range of pharmaceutically acceptable bases (comprising among others ammonia, L-arginine, choline, lysine, magnesium methoxide, meglumine, potassium methoxide and sodium hydroxide) in a range of different pharmaceutically acceptable solvents (including among others acetone, acetonitrile, ethyl acetate, chloroform, N,N-dimethylformamide, ethanol, isopropanol, nitromethane, dimethyl carbonate, methanol, methyl tert-butyl ether, tetrahydrofurane, diisopropyl ether, cyclohexane, butanol, water, 3-pentanone, toluene, chlorobenzene and isobutyl acetate) have been undertaken.
The salts from L-arginine, choline, magnesium methoxide and potassium methoxide were crystalline but hygroscopic. Additionally, some of said salts have different polymorphic phases.

Data set [4] in a line: Differential scanning calorimetry (DSC) thermogram. Particulars: heated 30 to 350° C. at 10° C./min. As for the experimental part: The differential scanning calorimetry (DSC) thermograms analyses were obtained using a DSC-821 Mettler-Toledo instrument, serial number 5117423874. Samples were weighed into an aluminium pan, an aluminium lid placed on top of the sample and compressed with a brass rod. Samples were equilibrated at 30° C. and heated at 10° C./min to 350° C. The instrument was calibrated using indium and zinc standards.
FIG. 1 illustrates the DSC thermogram of the sodium salt of 5-cyclopropyl-2-{[2-(2,6-difluorophenyl)pyrimidin-5-yl]amino}benzoic acid.
(DSC measures the heat that a sample takes up or gives off during a temperature scan.)

Counter-ions that a name gives are not always drawn.

Consider `O=C(O)c1cc(C2CC2)ccc1Nc1cnc(-c2c(F)cccc2F)nc1` [Ex. 1, 5-cyclopropyl-2-{[2-(2,6-difluorophenyl)pyrimidin-5-yl]amino}benzoic acid, sodium salt], for which the “Water Solubility @ 25° C. (mg/mL as acid)” value in data set [1] (sodium salt) came out at 1.87 mg/mL. Besides, the entries for the “Mass increase (DVS)” value in data set [2] (80% relative humidity) and in data set [2] (90% relative humidity) were 0.7% and 4.2%, respectively. For the same molecule, the “Hygroscopicity according to DVS” value in data set [2] (sorption 0 to 95% RH) is on record as “not hygroscopic”. In data set [2] (sorption/desorption isotherms), the “Hysteresis in DVS sorption/desorption” value was “no hysteresis”. For the same molecule, the “Hygroscopicity / deliquescence of the salt” value in data set [3] is on record as “neither hygroscopic nor deliquescent”. Further, the “Thermal stability (decomposition) by DSC” value in data set [4] is given as “does not suffer any decomposition at low-medium temperatures”.

Regarding `O=C(O)c1cc(C2CC2)ccc1Nc1cnc(-c2c(F)cccc2F)nc1` [Example C1, 5-cyclopropyl-2-{[2-(2,6-difluorophenyl)pyrimidin-5-yl]amino}benzoic acid], the “Water Solubility @ 25° C. (mg/mL as acid)” value in data set [1] is 0.03 mg/mL.

As to `N=C(N)NCCCC(N)C(=O)O.O=C(O)c1cc(C2CC2)ccc1Nc1cnc(-c2c(F)cccc2F)nc1` [salt from L-arginine], in data set [3], the “Hygroscopicity / deliquescence of the salt” value is “hygroscopic” and the Solid form obtained result is reported as “crystalline”.

In the case of `C[N+](C)(C)CCO.O=C([O-])c1cc(C2CC2)ccc1Nc1cnc(-c2c(F)cccc2F)nc1` [salt from choline], in data set [3], the “Hygroscopicity / deliquescence of the salt” value is on record as “hygroscopic” and the Solid form obtained result is recorded as “crystalline”.

With `NCCCCC(N)C(=O)O.O=C(O)c1cc(C2CC2)ccc1Nc1cnc(-c2c(F)cccc2F)nc1` [salt from lysine], the Solid form obtained entry in data set [3] is given as “either oils or amorphous solids”.

For the molecule `CNCC(O)C(O)C(O)C(O)CO.O=C(O)c1cc(C2CC2)ccc1Nc1cnc(-c2c(F)cccc2F)nc1` [salt from meglumine], the Solid form obtained result in data set [3] is listed as “either oils or amorphous solids”.

Regarding `O=C([O-])c1cc(C2CC2)ccc1Nc1cnc(-c2c(F)cccc2F)nc1.[K+]` [salt from potassium methoxide], in data set [3], the “Hygroscopicity / deliquescence of the salt” value is “hygroscopic” and the Solid form obtained result is on record as “crystalline”.
